From ChEMBL document CHEMBL1151611, “Antimicrobial principles from in vitro tissue culture of Peganum harmala” (J Nat Prod, 1984)
Calls of active or inactive are those of the source. The calls are words filed in the database; no cut-off is given here.

Assays:
Assay type in all cases: functional, organism-based
Staphylococcus aureus = assay: Antimicrobial activity against Staphylococcus aureus
Escherichia coli = assay: Antimicrobial activity against Escherichia coli
Candida albicans = assay: Antimicrobial activity against Candida albicans

Which Activity (Staphylococcus aureus) does the source give for `O=c1c(O)c(-c2ccc(O)cc2)oc2cc(O)cc(O)c12` here?
The Activity was “Active”.

And the Activity (Escherichia coli)?
The Activity was “Active”.

What about the Activity (Candida albicans) of the same molecule?
The Activity was “Active”.

How did the Activity (Staphylococcus aureus) turn out when `O=c1c(O)c(-c2ccc(O)c(O)c2)oc2cc(O)cc(O)c12` was run?
The Activity was “Active”.

And the Activity (Escherichia coli)?
The Activity was “Active”.

What about the Activity (Candida albicans) of the same molecule?
The Activity was “inactive”.
